Source: US7531320B2, “Modulation of β-catenin/TCF-activated transcription” (priority 2003, dated 2009)

Test system: β-catenin/TCF reporter gene construct
Assay: β-catenin/TCF luciferase reporter assay in SW480 cells
Type: cell-based, human
Protocol: FIG. 1. COMPOUND 1 inhibits β-catenin/TCF transcription. • A(i) and A(ii). Structures of COMPOUND 1, COMPOUND 2, COMPOUND 3, COMPOUND 4, and COMPOUND 5. • B(i) and B(ii). […] SW480 cells (10^5), (FIG. 1B(i)), were transfected with β-catenin/TCF luciferase construct. Cells were treated with COMPOUND 1 (1-64 μM). 24 hours post treatment lysates were prepared and subjected to dual luciferase assay. The data is represented in different form in FIG. 1B(ii). • C. COMPOUND 1 has no effect on NFAT reporter construct. Stably transfected Jurkat cells, right panel, with an NFAT reporter construct, were stimulated with PMA (10 ng/ml)/lonomycin (1 μg/ml), and treated with COMPOUND 1 (0.781-50 μM). 24 hours post treatment lysates were prepared and subjected to dual luciferase assay. All experiments were performed in duplicate and the values plotted as means +/−standard deviation. • D. CBP is the molecular target of COMPOUND 1. Nuclear extracts of SW480 cells were incubated with streptavidin-agarose beads coated with COMPOUND 2 (25 μM). Beads were washed 3 times and the eluted were subjected to gel electrophoresis and immunoblotting, with anti-CBP antibodies. […] The lysates were desalted using G-25 1 cc columns (Pharmacia) to remove the unbound ^14C-labeled-COMPOUND 1, and ^14C-labeled-COMPOUND 1 incorporation was measured. […]

O=C1C(Cc2ccc(O)cc2)N2C(=O)CCN(C(=O)NCc3ccccc3)C2CN1Cc1cccc2ccccc12 (centres unmarked) [COMPOUND 1] was tested, and the “Change of IC50 of COMPOUND 1 on transfection of increasing concentration of CBP” value (SW480 cells cotransfected with CBP (not β-catenin), dose-dependent) was “increased the IC50” and the IC50 (SW480 cells, 1-64 μM, 24 hours post treatment, dual luciferase assay) was 5 µM.
